Measurements reported in paper PMC8348310, “Antioxidants Isolated from Elaeagnus umbellata (Thunb.) Protect against Bacterial Infections and Diabetes in Streptozotocin-Induced Diabetic Rat Model” (Molecules, 2021).
≈ marks a conversion by molar mass, not a printed value. Where “and” joins values, the source holds several entries; their conditions need not be identical. Identical values can stand only once.

Columns and labels:
Salmonella typhi = assay: Broth dilution MIC determination; format: cell-based; details: Salmonella enterica, 24 h, read-out: Minimum Inhibitory Concentrations
[1] = biological target: T1, Type-VI α-amylase (porcine pancreas) (Sus scrofa, UniProt P00690); assay: In vitro α-amylase inhibition assay (DNSA); format: biochemical; details: for inhibition at 31.05 µg/mL / inhibition at 62.5 µg/mL / inhibition at 125 µg/mL / inhibition at 250 µg/mL / inhibition at 500 µg/mL / inhibition at 1000 µg/mL: read-out: % α-Amylase Inhibition Mean ± SEM; for IC50: linear regression of % inhibition vs concentration
T1 construct: purchased Sigma Aldrich (Darmstadt, Germany); host or cells: porcine pancreas
T1 sequence (P00690 16-511): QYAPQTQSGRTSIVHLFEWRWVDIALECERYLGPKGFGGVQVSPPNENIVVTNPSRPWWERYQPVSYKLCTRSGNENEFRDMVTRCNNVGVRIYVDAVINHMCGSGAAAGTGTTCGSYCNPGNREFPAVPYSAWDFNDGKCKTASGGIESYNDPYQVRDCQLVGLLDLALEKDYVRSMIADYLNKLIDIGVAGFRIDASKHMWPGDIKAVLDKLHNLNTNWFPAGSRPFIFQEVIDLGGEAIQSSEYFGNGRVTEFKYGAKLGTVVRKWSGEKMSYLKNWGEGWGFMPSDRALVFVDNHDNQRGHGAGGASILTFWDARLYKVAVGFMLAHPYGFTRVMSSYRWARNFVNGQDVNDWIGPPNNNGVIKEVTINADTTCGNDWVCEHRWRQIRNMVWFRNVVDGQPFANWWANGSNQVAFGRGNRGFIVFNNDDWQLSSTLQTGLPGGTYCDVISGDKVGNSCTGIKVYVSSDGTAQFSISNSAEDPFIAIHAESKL
Procedure: The α-amylase inhibition activity of morin was assessed using 3, 5-dinitrosalicylic acid (DNSA) assay. Morin, phloroglucinol, and 1-hexyl benzene were dissolved in mixture of 10% DMSO, 0.02M Na2HPO4/NaH2PO4 buffer, and 0.006M NaCl (pH 6.9) and finally dilutions (31.05, 62.5, 125, 250, 500 and 1000 µg/mL) were prepared. In total, 200 μL α-amylase (2 units/mL) was mixed with 200 μL morin and incubated at 30 °C for 10 min. After that, 200 μL starch (1%) was added to each serial dilution and incubated for 3 min. To stop the reaction 200 μL sodium potassium tartrate tetrahydrate reagent, 2M NaOH, and […] DNSA (96mM) reagent were added to the reaction mixture. The reaction mixtures were boiled for 10 min at 85–90 °C in a water bath. After cooling the mixture was diluted with 5mL distilled water and finally at 540 nm absorbance was recorded. A blank solution was prepared containing only isolated compound morin but no enzyme. […] The α-amylase enzyme inhibitory activity was calculated by the following Equation (2): (2) % α − amylase Inhibition =control absorbance−sample absorbance/control absorbance×100
(§1) All the in vitro and in vivo experiments were analyzed in three replicates and determined as mean ± SEM. Student’s t-test and one way ANOVA followed by Dunnett’s post hoc multiple comparison test was used. p ≤ 0.05 were considered as significant. Linear regression analysis was used to calculate the IC50 value for % DPPH, ABTS, α-amylase, and α-glucosidase inhibition against the different concentrations of the test samples by means of Excel program 2007.

[2] = DPPH free radical scavenging assay; format: biochemical; details: for DPPH IC50: linear regression of % scavenging vs concentration
Procedure: According to the Brand-Williams assay DPPH (2, 2-diphenyl-1-picrylhydrazyl) free radical scavenging activity of morin was determined. DPPH and compounds stock solutions (1 mg/mL) were prepared in 100 mL methanol with serial dilutions of […], 62.5, 250, 500, and 1000 µg/mL. After that, 0.1 mL morin was mixed with 3.0 mL DPPH solution and incubated at 23 °C for 30 min. Standard ascorbic acid solution was also prepared in the same way using as a positive control. Finally, absorbance was measured at 517 nm via UV spectrophotometer. Results were taken in a set of three experiments and represented as mean ± SEM. Percent free radicals scavenging potential was calculated according to the following Equation (1): (1) % Free radicals Scavenging potential = Blank sample absorbance−sample absorbance/Blank sample absorbance×100
as §1

Klebsiella pneumonia = assay: Broth dilution MIC determination; format: cell-based; details: Klebsiella pneumoniae, 37 °C, 24 h, read-out: Minimum Inhibitory Concentrations
Procedure: (§2) Antibacterial potential of isolated compound was investigated against both Gram-positive and Gram-negative bacterial strains; Escherichia coli, Bacillus cereus, Salmonella typhi, Klebsiella pneumonia, Pseudomonas aeruginosa and Proteus mirabilis. Bacterial strains were provided by the Department of Pharmacy, University of Malakand, Khyber Pakhtunkhwa, Pakistan, and were kept at 4 °C in agar slants in freeze-dried condition until further use.
(§3) Both Gram-positive and Gram-negative bacterial strains Escherichia coli, Bacillus cereus, Salmonella typhi, Klebsiella pneumonia, Pseudomonas aeruginosa and Proteus mirabilis organism viable count per mL in the stock suspension was determined using surface viable counting technique. About 10^8–10^9 colony-forming units (CFU) per mL were used as inoculum in subsequent experiments. A fresh stock suspension was used each time.
(§4) Minimum inhibitory concentrations (MICs) of morin, phloroglucinol, and 1-hexyl benzene were determined using broth dilution method, following the Clinical and Laboratory Standards Institute (CLSI) guidelines. Stock solutions of morin, phloroglucinol, and 1-hexyl benzene were prepared in dimethylsulphoxide (DMSO). The serial dilutions from the stock solution were made ranging from 500 to 3.90 μg/mL using Mueller–Hinton broth. Sterile centrifuge tubes were arranged in sets of rows for each bacterial inoculum to cover the different concentration of isolated compounds in triplicate. The standard bacterial stock suspension 10^8–10^9 CFU/mL, in 100 μL were inoculated into each tube. A sterility control tube and a growth control tube were also incubated (for each strain). The tubes were incubated at 37 °C for 24 h. After incubation, 40 μL of a 0.4 mg/mL solution of para iodonitrotetrazolium (INT) chloride was added to each tube as an indicator of microbial growth. […] The evaluation for the inhibition of microbial growth was based on the color change of INT to pink, while no color change indicates the absence of growth. The MIC is the lowest concentration of the compounds at which there is no visible growth in the tubes. The concentration that inhibited bacterial growth completely (the first clear tube) was taken as the MIC value. Experiments were performed in triplicate and mean values are presented.
(§5) In order to, determine the sensitivity of the bacterial strains, positive control experiments were conducted, taking ampicillin at a starting concentration of 0.10 mg/mL in sterile water while the final concentrations for these experiments ranged from 25.00 to 0.19 μg/mL. A negative control experiment was conducted using only DMSO.

Escherichia coli = assay: Broth dilution MIC determination; format: cell-based; details: 37 °C, 24 h, read-out: Minimum Inhibitory Concentrations
Procedure: as §2, §3, §4, §5

Bacillus cereus = assay: Broth dilution MIC determination; format: cell-based; details: 37 °C, 24 h, read-out: Minimum Inhibitory Concentrations
Procedure: as §2, §3, §4, §5

Pseudomonas aeruginosa = assay: Broth dilution MIC determination; format: cell-based; details: 37 °C, 24 h, read-out: Minimum Inhibitory Concentrations
Procedure: as §2, §3, §4, §5

Proteus mirabilis = assay: Broth dilution MIC determination; format: cell-based; details: 37 °C, 24 h, read-out: Minimum Inhibitory Concentrations
Procedure: as §2, §3, §4, §5

Row | Compound | MIC (Salmonella typhi) | inhibition at 31.05 µg/mL [1] | inhibition at 62.5 µg/mL [1] | inhibition at 125 µg/mL [1] | inhibition at 250 µg/mL [1] | inhibition at 500 µg/mL [1] | inhibition at 1000 µg/mL [1] | IC50 [1] | % DPPH Scavenging Mean ± SEM ([2]; 31.05 µg/mL) | % DPPH Scavenging Mean ± SEM ([2]; 62.5 µg/mL) | % DPPH Scavenging Mean ± SEM ([2]; 250 µg/mL) | % DPPH Scavenging Mean ± SEM ([2]; 500 µg/mL) | % DPPH Scavenging Mean ± SEM ([2]; 1000 µg/mL) | DPPH IC50 [2] | MIC (Klebsiella pneumonia) | MIC (Escherichia coli) | MIC (Bacillus cereus) | MIC (Pseudomonas aeruginosa) | MIC (Proteus mirabilis)
1 | Oc1cc(O)cc(O)c1 [Phloroglucinol, Benzene-1,3,5-triol] | 175 ± 2 µg/mL (≈ 1390 µM) | 29 ± 1% | 32 ± 1.4% | 39 ± 1.5% | 42 ± 0.4% | 55 ± 1.1% | 63 ± 0.5% | 753 µM | 32 ± 0.5 % | 36 ± 1.1 % | 51 ± 1.0 % | 57 ± 1.0 % | 67 ± 0.4 % | 105 µg/mL | 166 ± 1.5 µg/mL (≈ 1320 µM) | 80 ± 1.4 µg/mL (≈ 634 µM) | 105 ± 1.6 µg/mL (≈ 833 µM) | 180 ± 2.1 µg/mL (≈ 1430 µM) | 205 ± 1.5 µg/mL (≈ 1630 µM)
2 | CCCCCCc1ccccc1 [1-Hexyl benzene, 1-hexylbenzene] | 112 ± 1.6 µg/mL (≈ 690 µM) | 22 ± 1.1% | 28 ± 2.1% | 37 ± 1.4% | 44 ± 0.5% | 49 ± 2.1% | 55 ± 1.5% | 709 µM | 28 ± 1.1 % | 35 ± 0.4 % | 46 ± 0.5 % | 53 ± 2.1 % | 59 ± 1.5 % | 118 µg/mL | 178 ± 2.2 µg/mL (≈ 1100 µM) | 95 ± 2.1 µg/mL (≈ 585 µM) | 135 ± 1.5 µg/mL (≈ 832 µM) | 200 ± 1.5 µg/mL (≈ 1230 µM) | 250 ± 1.2 µg/mL (≈ 1540 µM)
3 | O=c1c(O)c(-c2ccc(O)cc2O)oc2cc(O)cc(O)c12 [Morin, 2-(2,4-Dihydroxyphenyl)-3,5,7-trihydroxychromen-4-one] | 28 ± 1 µg/mL (≈ 92.6 µM) | 37 ± 1.1% | 44 ± 2.1% | 54 ± 1.4% | 60 ± 0.5% | 67 ± 1.4% | 75 ± 1.5% | 182 µM | 54 ± 0.5 % | 59 ± 1.3 % | 76 ± 1.0 % | 83 ± 0.5 ^ns % | 88± 1.1% and 88 ± 1.1 ^ns % | 37 µg/mL | 30 ± 1.4 µg/mL (≈ 99.3 µM) | 25 ± 1.1 µg/mL (≈ 82.7 µM) | 21 ± 1.2 µg/mL (≈ 69.5 µM) | 44 ± 1.5 µg/mL (≈ 146 µM) | 55 ± 1.4 µg/mL (≈ 182 µM)
